The values that follow come from patent US20240415985A1, “PHOTOCLEAVABLE PRODRUG-BASED NANOMEDICINE FOR IN-SITU MONITORABLE CANCER THERAPY” (The University of Hong Kong, priority 2021, published 2024).

Data set [1] in a line: Spectrum study of dye degradation under light irradiation (absorbance, fluorescence). Format: physicochemical. The conditions noted are these: for decomposition of dye upon light irradiation: 530 nm, in ICG/BC NPs and IR820/BC NPs (FIGS. 2K-2M). As for the experimental part:
At different time points, the absorbance and fluorescence were measured by spectrometers without any dilution.

Data set [2] can be described thus: In vivo biodistribution by fluorescence imaging in HCT116 tumor-bearing mice. The conditions noted are these: i.v., imaging 1-24 h post injection. More on the design: species or system BALB/c nude mice.
Data set [3] in a line: Loading capacity and encapsulation efficiency of IR783 and BC in NPs by HPLC. It is filed as physicochemical. As for the experimental part: BODIPY-Cb was dissolved in DMSO (20 μL, 10 mg/mL), and added dropwise to a 300 μL aqueous solution containing IR783 (400 μg/mL) under vigorous vortex. The solution was centrifuged once (2000×g, 10 min, 4° C.) to remove the precipitate. Then the supernatant was centrifuged twice (30,000×g, 30 min, 4° C.), and the resulting precipitate was re-suspended in 300 μL of sterile PBS. Other prodrug/dye NPs were prepared following the same procedure as above. The contents of IR783 and BC in the resulted nanoparticle solution were determined by HPLC analysis. Their loading capacity and encapsulation efficiency were calculated as follow: […]

Data set [4] can be described thus: Singlet oxygen detection in solution (SOSG assay). It is filed as physicochemical. The note with it: 530 nm, 50 mW/cm^2, 0-1 min; equivalent concentration of BC. As for the experimental part:
Singlet oxygen generation was measured both in solutions and cells using SOSG and DCFH-DA as indicator, respectively. […] Besides, the intracellular ^1O2 generation was detected by CLSM. […] Subsequently, the cells were washed with PBS for 3 times and incubated with DCFH-DA (10 μM) for 30 min. The cells were irradiated by LED (530 nm, 50 mW/cm^2, 5 min) for the light irradiation groups. The intracellular fluorescence was observed by CLSM imaging to evaluate the ^1O2 generation.

Data set [5] has as its system human umbilical vein endothelial cells (HUVECs). Kind of data set: Cytotoxicity in dark, biocompatibility evaluation. It is filed as cell-based. The note with it: 24 h, up to 100 μM. As for the experimental part:
(§1) HCT116 cells were cultured in RPMI-1640 (Gibco) supplemented with 10% FBS (Gibco) and 100 units/mL antibiotics (Penicillin-Streptomycin, Gibco) at 37° C. in a 5% CO2 humidified atmosphere. HUVECs cells were cultured in DMEM (Gibco) supplemented with 10% FBS (Gibco) and 100 units/mL antibiotics (Penicillin-Streptomycin, Gibco) at 37° C. in a 5% CO2 humidified atmosphere.
(§2) The cell viability was evaluated by MTT assay. HCT116 cells were incubated in 96-well microliter plates for 24 h. Then, gradient concentrations of BC prodrug or IR783/BC NPs in RPMI 1640 culture medium were added to the cells. After 6 h incubation, the residual BC or IR783/BC NPs were removed by fresh RPMI 1640 culture medium (100 μL). Then, the cells were irradiated by 530 nm LED light (50 mW/cm^2, 5 min) or incubated at room temperature without light. After another incubation for 24 h, MTT solution (10 μL, 10 mg/mL) was added to the cells to cultivate for 3 h. Next, the cell culture medium was discarded, and DMSO (100 μL) was then added. The absorbance was measured by a multi-mode microplate reader at 490 nm, 570 nm and 630 nm.

Data set [6] concerns HCT116 cells. In words: Anti-proliferation effect by MTT assay. It is filed as cell-based, human. As for the experimental part:
as §1, §2
(Formazan colour is commonly taken as a measure of viable cells.)

For data set [7] the following is noted: refs [17, 39]; cited from earlier work.
Data set [8] relates to HCT116 cells. In words: Apoptosis study (Annexin-V FITC/PI, flow cytometry). It is filed as cell-based, human. The conditions noted are these: 20 μM, with or without light irradiation. As for the experimental part:
For apoptosis study, HCT116 cells were seeded in 6-well plates at a density of 50000 cells/well and treated with free Cb or IR783/BC NPs at the equivalent concentration of Cb at 5 μM and 20 μM for 6 h. Then the cells were washed by PBS. The cells in the irradiation group were irradiated by light for 5 min. After 24-h incubation, cells were washed by PBS, collected by trypsin digestion, and stained with Annexin-V/FITC apoptosis kit. ACEA NovoCyte Quanteon flow cytometer (ACEA Biosciences, San Diego, CA, USA) was used for cell study.
(Flow cytometry measures light scatter and fluorescence of single cells or particles in a stream.)

The test system of the next data set is HCT116 xenografts. Kind of data set: In vivo antitumor efficacy. Also on record: species or system BALB/c nude mice. The note with it: without light irradiation, i.v. Day 0, 4, 8, 12. The protocol:
BALB/c nude mice were purchased from SLAC Experiment Animal Co., Ltd. (Shanghai, China) and kept in the Laboratory Animal Center of Fudan University (Shanghai, China). For the subcutaneous tumor model, male BALB/c nude mice were injected with 2×10^7 HCT116 cells subcutaneously. The mice were then further kept in SPF condition for 5-7 days until tumors were observed.
The antitumor efficacy of IR783/BC NPs in the presence or absence of light was investigated in HCT116 tumor mouse model. The mice were randomly divided into six groups when the tumor size reached about 200 mm^3. For different groups, mice were treated with different formulations via i.v. injection at Day 0, 4, 8, and 12: (1) PBS; (2) PBS+hv; (3) IR783+hv; (4) Cb; (5) IR783/BC NPs; (6) IR783/BC NPs+hv. For the irradiation group, light irradiations (100 mW/cm^2, 10 min) were performed 24 h post injection. The dose for each treatment was set as 5 mg/kg. Tumor sizes and body weights were measured in a 2-day interval, and the tumor volume was calculated as V=½×width^2×length. At the end of the experiment (Day 14), all mice were euthanized, and the tumors and major organs were collected and sliced for H&E staining and immunohistochemical analysis.

The subject of data set [9] is HCT116 cells. In words: Live/dead staining (Calcein-AM/PI). Format: cell-based, human. The note with it: BC equivalent 50 μM; groups with or without 530 nm irradiation as stated. As for the experimental part:
For live/dead staining, HCT116 cells were seeded in confocal dishes at a density of 10000 cells/well and treated with PBS, free IR783, free BC and IR783/BC NPs with an equivalent concentration of BC at 50 μM. For the irradiation groups, cells were washed by PBS after 6 h and irradiated by 530 nm LED for 5 min. Calcein-AM and PI were then added into the medium and the cells were observed by CLSM without any treatment.

As a reminder, the IC50 is the concentration that gives 50% inhibition.

Where two headings read alike, the source gives them in different places.

For the compound `CC1(C)C(/C=C/C=C/C=C/C=C2\N(CCCCS(=O)(=O)O)c3ccc4ccccc4c3C2(C)C)=[N+](CCCCS(=O)(=O)[O-])c2ccc3ccccc3c21` [ICG, Indocyanine green], the “decomposition of dye upon light irradiation” value in data set [1] is given as “decomposed”.

For the compound `CC1(C)C(=CC=C2CCCC(C=CC3=[N+](CCCCS(=O)(=O)[O-])c4ccccc4C3(C)C)=C2Cl)N(CCCCS(=O)(=O)[O-])c2ccccc21.[Na+]` [IR783], the “whole-body fluorescence retention after systemic administration” value in [2] is recorded as “fleetly eliminated”. In data set [3], the “Encapsulation Efficiency” value is 0.02% and the “Loading Capacity” value was determined as 1.15%. Moreover, in [4], the “^1O2 generation (SOSG fluorescence)” value was “much lower efficiency”. Besides, the “NIR fluorescence emission pattern upon light irradiation” value in data set [1] (530 nm light irradiation) is on record as “did not see similar phenomena”. Further, the cytotoxicity in dark entry in [5] is “Negligible cytotoxicity”.

Take `CC1(C)C(=CC=C2CCCC(C=CC3=[N+](CCCCS(=O)(=O)[O-])c4ccc5ccccc5c4C3(C)C)=C2Cl)N(CCCCS(=O)(=O)[O-])c2ccc3ccccc3c21.[Na+]` [IR820]: the “decomposition of dye upon light irradiation” value in data set [1] is on record as “decomposed”.

For `O=C(O)CCCc1ccc(N(CCCl)CCCl)cc1` [chlorambucil, Chlorambucil], in the data set on HCT116 cells [6] (with/without light irradiation (FIG. 8B)), the “cytotoxicity of free drug” value was “relatively low”. Also, the “hydrolysis in aqueous solution” value in [7] is recorded as “rapidly hydrolyze”. Also, the apoptosis entry in the data set with HCT116 cells [8] was “about 5%”. Also, in the data set with HCT116 xenografts, the anti-tumor efficacy entry is on record as “undermined”.

Turning to boron-dipyrromethene-chlorambucil [BC], the IC50 in the data set with HCT116 cells [6] (530 nm light irradiation, on BC prodrug basis, read-out: IC50 (cell viability)) stood at 9.24 µM. Also, the “Encapsulation Efficiency” value in [3] (listed as BC prodrug) and in data set [3] (listed as BODIPY-Cb) was 84.37% in each case. Further, the “Loading Capacity” value in [3] (listed as BC prodrug) and in data set [3] (listed as BODIPY-Cb) was 98.85% throughout. For the same compound, in the data set with HCT116 cells [9], the “cell death in live-dead staining” value is “dead cells presenting red fluorescence were observed”.
